From US5686486A, “4-hydroxy-benzopyran-2-ones and 4-hydroxy-cycloalkyl[b]pyran-2-ones useful to treat retroviral infections” (priority 1995, dated 1997) come the findings set out here.

Where “and” joins values, the source holds several entries; their conditions need not be identical. Identical values can stand only once.

Assay [1] concerns the target T1, HIV-1 protease (Human immunodeficiency virus type 1 group M subtype B, UniProt P04585). Put plainly: biochemical. Conditions: for inhibition at 0.123 µM: read-out: HIV-1 Protease % Inhib, dose 0.123 uM; for inhibition at 0.37 µM: read-out: HIV-1 Protease % Inhib, dose 0.370 uM; for inhibition at 1.1 µM: read-out: HIV-1 Protease % Inhib, dose 1.100 uM; for inhibition at 3.3 µM: read-out: HIV-1 Protease % Inhib, dose 3.300 uM; for inhibition at 10 µM: read-out: HIV-1 Protease % Inhib, dose 10.000 uM; for inhibition at 30 µM: read-out: HIV-1 Protease % Inhib, dose 30.000 uM; for inhibition at 1 µM: read-out: HIV-1 Protease % Inhib, dose 1.000 uM; for inhibition at 100 µM: read-out: HIV-1 Protease % Inhib, dose 100.000 uM. An outline of the steps: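 Percent inhibition derived from fluorescent cleavage product separated by filtration after streptavidin-bead capture of intact biotin/FITC substrate. Reaction: enzyme (10 μl, 0.1 μM stock) with substrate (20 μl, 0.2 μM stock) and compound, 1 h at room temperature in dark, pH 5.5 acetate buffer with 1.0 M NaCl and 0.05% NP-40.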

Assay [2] has as its target T1, HIV-1 protease. The experiment in a line: biochemical. Conditions: read-out: HIV-1 FITC KI. As to the method: Determination of Ki values utilizes the same materials and equipment employed for percent inhibition studies. Two-fold serial dilutions are made for a given inhibitor from 2, 3 or 4 starting concentrations with a total of 24, 36 or 48 individual inhibitor concentrations. These dilutions are performed utilizing the BioMek robotics system. The assay consists of 10 μL of 40 nM HIV-1 protease, 10 μL of the various inhibitor concentrations, and 20 μL of 200 μM substrate (40 μL total). The reaction is allowed to proceed for 90 min at room temperature, terminated with 40 μL of avidin beads and processed (supra vide). An inhibitor with a known Ki is run in parallel to verify the validity of the assay. The data is processed utilizing a computer program employing a nonlinear least square analysis of the data to generate the Ki values.

On to `O=c1oc2c(c(O)c1C(c1ccccc1)C1CC1)CCCCCC2CC1CCCO1` (single isomer, unassigned) [Example 170, 3-(Cyclopropylphenylmethyl)-5,6,7,8,9,10-hexahydro-4-hydroxy-10-[(tetrahydro-2-furanyl)methyl]-2H-cycloocta[b]pyran-2-one], for which, in assay [1], the inhibition at 0.123 µM turned out to be 23.2%, the inhibition at 0.37 µM was 62.3%, the inhibition at 1.1 µM worked out at 92.5% and the inhibition at 3.3 µM was 99.3%. Besides, in assay [1], the inhibition at 10 µM was 107% and the inhibition at 30 µM was found to be 111%. Besides, the Ki in assay [2] turned out to be 31 nM.
`O=c1oc2c(c(O)c1C(c1ccccc1)C1CC1)CCCCCC2CC1CCCO1` (single isomer, unassigned) [Example 171, 3-(Cyclopropylphenylmethyl)-5,6,7,8,9,10-hexahydro-4-hydroxy-10-[(tetrahydro-2-furanyl)methyl]-2H-cycloocta[b]pyran-2-one]: the “HIV-1 Protease % Inhib” value is on record as 33.13% in assay [1] (dose 0.123 uM); 73.44% in assay [1] (dose 0.370 uM); 96.52% in assay [1] (dose 1.100 uM); 103.16% in assay [1] (dose 3.300 uM); 109.98% in assay [1] (dose 10.000 uM); 108.64% in assay [1] (dose 30.000 uM). Further, the Ki in assay [2] was determined as 23 nM.
With `CC(C)(C)OC(=O)NCC(=O)Nc1cccc(C(c2c(O)c3c(oc2=O)CCCCCC3)C2CC2)c1` (single isomer, unassigned) [Example 238, Carbamic acid, [2-[[3-(R or S)-[cyclopropyl(5,6,7,8,9,10-hexahydro-4-hydroxy-2-oxo-2H-cycloocta[b]pyran-3-yl)methyl]phenyl]amino]-2-oxoethyl]-, 1,1-dimethyl ethyl ester], the “HIV-1 Protease % Inhib” value in assay [1] (dose 0.123 uM) is reported as 30.5%. In assay [1], the inhibition at 0.37 µM came out at 76.4%, the inhibition at 1.1 µM was 96.3%, the inhibition at 3.3 µM came to 99.9% and the inhibition at 10 µM is 116%. The inhibition at 30 µM in assay [1] was 115%. In assay [2], the Ki is 13.4 nM.
As for `CC(C)(C)OC(=O)NCC(=O)Nc1cccc(C(c2c(O)c3c(oc2=O)CCCCCC3)C2CC2)c1` (single isomer, unassigned) [Example 239, Carbamic acid, [2-[[3-(R or S)-[cyclopropyl(5,6,7,8,9,10)-hexahydro-4-hydroxy-2-oxo-2H-cycloocta[b]pyran-3-yl)methyl]phenyl]amino]-2-oxoethyl]-, 1,1-dimethyl ethyl ester], the “HIV-1 Protease % Inhib” value in assay [1] (dose 0.123 uM) is 69.55%; in assay [1] (dose 0.370 uM), 88.01%; in assay [1] (dose 1.100 uM), 98.34%; in assay [1] (dose 3.300 uM), 102.72%; in assay [1] (dose 10.000 uM), 107.4%; in assay [1] (dose 30.000 uM), 100.72%. The Ki in assay [2] came to 2.2 nM.
Regarding `CC(C)(C)OC(=O)N[C@@H](Cc1c[nH]cn1)C(=O)Nc1cccc(C(c2c(O)c3c(oc2=O)CCCCCC3)C2CC2)c1` (single isomer, unassigned) [Example 240, Carbamic acid, [2-[[3-(R or S)-[cyclopropyl(5,6,7,8,9,10-hexahydro-4-hydroxy-2-oxo-2H-cycloocta[b]pyran-3-yl)methyl]phenyl]amino]-1-(S)-(1H-imidazol-4-ylmethyl)-2-oxoethyl]-, 1,1 dimethyl ethyl ester], the “HIV-1 Protease % Inhib” value in assay [1] (dose 0.123 uM) stood at 54.87%; in assay [1] (dose 0.370 uM) it was 89.42%; in assay [1] (dose 1.100 uM), 111.38%; in assay [1] (dose 3.300 uM), 113.39%; in assay [1] (dose 10.000 uM), 114.19%; in assay [1] (dose 30.000 uM) it was 109.5%. Besides, the Ki in assay [2] is 4.2 nM and 5 nM.
As to `CC(C)(C)OC(=O)N[C@@H](Cc1c[nH]cn1)C(=O)Nc1cccc(C(c2c(O)c3c(oc2=O)CCCCCC3)C2CC2)c1` (single isomer, unassigned) [Example 241, Carbamic acid, [2-[[3-(R or S)-[Cyclopropyl(5,6,7,8,9,10-hexahydro-4-hydroxy-2-oxo-2H-cycloocta[b]pyran-3-yl)methyl]phenyl]amino]-1-(S)-(1H-imidazol-4-ylmethyl)-2-oxoethyl]-, 1,1 dimethyl ethyl ester], the “HIV-1 Protease % Inhib” value is listed as 81.78% in assay [1] (dose 0.123 uM); 91.77% in assay [1] (dose 0.370 uM); 98.65% in assay [1] (dose 1.100 uM); 101.51% in assay [1] (dose 3.300 uM); 110.04% in assay [1] (dose 10.000 uM); 104.34% in assay [1] (dose 30.000 uM). In addition, in assay [2], the Ki is 1.32 nM and 1.9 nM.
Turning to `CCCC(c1cccc(NS(=O)(=O)c2ccc(C#N)cc2)c1)c1c(O)c2c(oc1=O)CCCCCC2` (single isomer, unassigned) [Example 437, (R or S)-Benzenesulfonamide, 4-cyano-N-[3-[1-(5,6,7,8,9,10-hexahydro-4-hydroxy-2-oxo-2H-cycloocta[b]pyran-3-yl)butyl]phenyl]-], in assay [1], the inhibition at 0.123 µM worked out at 68.1%, the inhibition at 0.37 µM was 87.1%, the inhibition at 1.1 µM is 103% and the inhibition at 3.3 µM is 108%. Also, in assay [1], the inhibition at 10 µM came to 112% and the inhibition at 30 µM is 105%. Besides, the Ki in assay [2] is 2.3 nM.
Regarding `CCCC(c1cccc(NS(=O)(=O)c2ccc(C#N)cc2)c1)c1c(O)c2c(oc1=O)CCCCCC2` (single isomer, unassigned) [Example 439, (R or S)-Benzenesulfonamide, 4-cyano-N-[3-[1-(5,6,7,8,9,10-hexahydro-4-hydroxy-2-oxo-2H-cycloocta[b]pyran-3-yl)butyl]phenyl]-], the “HIV-1 Protease % Inhib” value in assay [1] (dose 0.123 uM) stood at 60.96%; in assay [1] (dose 0.370 uM), 68.15%; in assay [1] (dose 1.100 uM), 92.17%; in assay [1] (dose 3.300 uM) it was 92.32%; in assay [1] (dose 10.000 uM), 96.45%; in assay [1] (dose 30.000 uM) it was 94.26%. Besides, the Ki in assay [2] amounted to 3 nM.
Take `O=c1oc2c(c(O)c1C(c1ccccc1)C1CC1)CCCCCC2` (stereo not drawn) [Example 107, 3-(Cyclopropylphenylmethyl)-5,6,7,8,9,10-hexahydro-4-hydroxy-2h-cycloocta[b]pyran-2-one]: in assay [1], the inhibition at 1 µM came out at 90.7%, the inhibition at 10 µM stood at 101% and the inhibition at 100 µM worked out at 101%. Moreover, the Ki in assay [2] was 20 nM and 12 nM and 7 nM.
Regarding `CCC(c1ccccc1)c1c(O)c2c(oc1=O)CCCC2` (stereo not drawn) [Example 109, 5,6,7,8-Tetrahydro-4-hydroxy-3-(1-phenylpropyl)-2H-l-benzopyran-2-one], in assay [1], the inhibition at 1 µM is below 10%, the inhibition at 10 µM turned out to be 71.9% and the inhibition at 100 µM amounted to 92%. Further, the Ki in assay [2] was 1090 nM.
For `CCC(c1ccccc1)c1c(O)c2c(oc1=O)CCC2` (stereo not drawn) [Example 111, 6,7-Dihydro-4-hydroxy-3-(1-phenylpropyl)-cyclopenta[b]pyran-2(5H)-one] the same measures were 36.5%, 94.3%, 101% and 700 nM.
On the same counts, the results for `O=c1oc2c(c(O)c1C(c1ccccc1)C1CC1)CCCCC2` (stereo not drawn) [Example 112, 3-(Cyclopropylphenylmethyl)-6,7,8,9-tetrahydro-4-hydroxy-cyclohepta[b]pyran-2(5H)-one] are 70.1%, 102%, 105% and 96 nM.
For `O=c1oc2c(c(O)c1C(c1ccccc1)C1CC1)CCCC2` (stereo not drawn) [Example 115, 3-(Cyclopropylphenylmethyl)-5,6,7,8-tetraphydro-4-hydroxy-2H-1-benzopyran-2-one] the same measures were 62.1%, 102%, 129% and 177 nM.
In the case of `O=c1oc2c(c(O)c1C(c1ccccc1)C1CC1)CCCCCCCC2` (stereo not drawn) [Example 116, 3-(Cyclopropylphenylmethyl)-5,6,7,8,9,10,11,12-octahydro-4-hydroxy-2H-cyclodeca[b]pyran-2-one], in assay [1], the inhibition at 1 µM came out at 23%, the inhibition at 10 µM came to 65.7% and the inhibition at 100 µM amounted to 102%. Besides, the Ki in assay [2] was 558 nM.
In the case of `O=c1oc2c(c(O)c1C(c1ccccc1)C1CC1)CCCCCCC2` (stereo not drawn) [Example 117, 3-(Cyclopropylphenylmethyl)-6,7,8,9,10,11-hexahydro-4-hydroxy-cyclonona[b]pyran-2(5H)-one], the inhibition at 0.41 µM in assay [1] (read-out: HIV-1 Protease % Inhib, dose 0.410 uM) is 80.1%. In addition, the inhibition at 1.23 µM in assay [1] (read-out: HIV-1 Protease % Inhib, dose 1.230 uM) was 94%. In addition, the inhibition at 3.7 µM in assay [1] (read-out: HIV-1 Protease % Inhib, dose 3.700 uM) came out at 101%. Moreover, in assay [1] (read-out: HIV-1 Protease % Inhib, dose 11.000 uM), the inhibition at 11 µM was determined as 114%. For the same molecule, in assay [1] (read-out: HIV-1 Protease % Inhib, dose 33.000 uM), the inhibition at 33 µM stood at 107%. Also, the inhibition at 100 µM in assay [1] was determined as 100%. Further, the Ki in assay [2] was found to be 37 nM.

What is called Ki is the dissociation constant of the complex between target and ligand, obtained from inhibition or displacement.
